Earlier results in patent US8974795B2, “Controlled release formulation based on hematin anhydride crystals for the induction of an innate immune reaction” (priority 2010, dated 2015).
Where two headings read alike, the source gives them in different places.

[1] = Table 1, medium strong organic acids

| pKa [1] | SMILES | pKa |
| --- | --- | --- |
| 4.32 | Cc1cc(C)cc(C(=O)O)c1 [Mesitylenic acid] | – |
| 3.94 | O=C(O)C(c1ccccc1)c1ccccc1 [Diphenylacetic acid] | – |
| 4.58 | O=C(O)CCc1ccccc1Cl [3-(2-Chlorophenyl)propanoic acid] | – |
| 4.59 | O=C(O)CCc1cccc(Cl)c1 [3-(3-Chlorophenyl)propanoic acid] | – |
| 4.05 | CC(Cl)CC(=O)O (stereo not drawn) [3-Chlorobutanoic acid] | – |
| 4.61 | O=C(O)CCc1ccc(Cl)cc1 [3-(4-Chlorophenyl)propanoic acid] | – |
| 4.19 | O=C(O)Cc1ccc(Cl)cc1 [4-Chlorophenylacetic acid] | – |

More lines, now with the values behind:

| SMILES | pKa [1] | pKa |
| --- | --- | --- |
| C=CC1=C(C)c2cc3[n-]c(cc4[n-]c(cc5nc(cc1n2)C(C)=C5C=C)c(C)c4CCC(=O)O)c(CCC(=O)O)c3C.[Fe+2] [heme] | – | about 4.5 |
| O=C(O)C(O)c1ccccc1 (racemic) [DL-Mandelic acid] | 3.85 | – |
| O=C(O)Cc1ccccc1Cl [2-Chlorophenylacetic acid] | 4.07 | – |
| O=C(O)Cc1cccc(Cl)c1 [3-Chlorophenylacetic acid] | 4.14 | – |
| CC(C(=O)O)c1ccccc1 (stereo not drawn) [α-Phenylpropanoic acid] | 4.64 | – |
